Series [1] has as its target T1, Adenosine receptor A1 (Rattus norvegicus, UniProt P25099).
T1 sequence (P25099 whole entry): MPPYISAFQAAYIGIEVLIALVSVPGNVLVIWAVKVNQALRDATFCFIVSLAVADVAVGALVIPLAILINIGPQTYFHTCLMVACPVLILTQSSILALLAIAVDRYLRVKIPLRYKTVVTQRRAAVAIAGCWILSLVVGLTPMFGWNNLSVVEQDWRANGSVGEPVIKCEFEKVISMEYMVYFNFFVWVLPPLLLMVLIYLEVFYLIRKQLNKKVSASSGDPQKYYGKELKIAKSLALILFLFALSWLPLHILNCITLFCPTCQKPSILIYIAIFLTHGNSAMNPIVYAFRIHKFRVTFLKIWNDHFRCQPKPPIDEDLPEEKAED

The next series has as its target Adenosine A2 receptor (Rattus norvegicus, UniProt P29276+P30543).
In series [2] the target is T2, Adenosine receptor A1 (Cavia porcellus, UniProt P47745).
T2 sequence (P47745 whole entry): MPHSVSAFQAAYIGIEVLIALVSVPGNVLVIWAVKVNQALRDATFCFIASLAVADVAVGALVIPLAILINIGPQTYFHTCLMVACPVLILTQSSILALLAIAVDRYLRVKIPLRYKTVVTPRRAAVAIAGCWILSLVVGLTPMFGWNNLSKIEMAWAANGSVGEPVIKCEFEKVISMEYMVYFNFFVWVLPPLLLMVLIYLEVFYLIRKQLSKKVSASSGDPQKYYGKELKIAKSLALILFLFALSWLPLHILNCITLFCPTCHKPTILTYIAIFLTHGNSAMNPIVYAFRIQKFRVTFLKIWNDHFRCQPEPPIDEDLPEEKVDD
Description: Binding affinity against adenosine A1 receptor from guinea pig forebrain membranes, using N6-[3H]cyclohexyladenosine as radioligand.

The target of series [3] is Adenosine receptor A2a (Homo sapiens) (UniProt P29274).
Sequence of Adenosine receptor A2a (Homo sapiens) (P29274 whole entry, looked up): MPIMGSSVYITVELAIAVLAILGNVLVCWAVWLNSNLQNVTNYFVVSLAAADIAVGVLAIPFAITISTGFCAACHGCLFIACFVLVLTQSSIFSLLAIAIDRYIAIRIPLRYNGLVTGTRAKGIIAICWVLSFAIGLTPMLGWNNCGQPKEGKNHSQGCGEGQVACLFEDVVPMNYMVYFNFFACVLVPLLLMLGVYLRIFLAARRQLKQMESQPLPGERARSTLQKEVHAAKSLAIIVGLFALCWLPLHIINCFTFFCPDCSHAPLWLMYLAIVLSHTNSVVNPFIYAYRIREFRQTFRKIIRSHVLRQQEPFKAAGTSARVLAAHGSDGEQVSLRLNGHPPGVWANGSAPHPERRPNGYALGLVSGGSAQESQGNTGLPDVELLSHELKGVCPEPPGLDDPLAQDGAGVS
For series [4], the target named is T1, Adenosine receptor A1. Format: cell membranes, Membrane.
Series [5] can be described thus: Water solubility of the compound. Format: ADME. The note with it: read-out: S.

Bounds are passed on as bounds.

With `CCCn1c(=O)c2c(nc(/C=C/c3cc(OC)c(OC)c(OC)c3)n2C)n(CCC)c1=O`, the inhibitory constant (Ki) on Adenosine receptor A1 [1] was found to be 1100 nM; at Adenosine A2 receptor it was 14 nM; on Adenosine receptor A1 [2] it was 2100 nM. For the same compound, the Ki ratio in the series listed under Cavia porcellus was determined as 150.
In the case of `CCCn1c(=O)c2c(nc(C3CCCC3)n2C)n(CCC)c1=O`, the Kb in series [3] is 220 nM. The inhibitory constant (Ki) was over 100000 nM on Adenosine A2 receptor and 8100 nM at Adenosine receptor A1 [2]. For the same compound, in the series listed under Cavia porcellus, the Ki ratio amounted to 0.26.
Regarding `COc1cc(/C=C/c2nc3c(c(=O)n(C)c(=O)n3C)n2C)cc(OC)c1OC`, the inhibition constant (Ki) on Adenosine receptor A1 [2] is over 100000 nM.
Consider `CCCn1c(=O)c2nc(/C(C)=C/c3ccccc3)[nH]c2n(CCC)c1=O`, for which the inhibition constant (Ki) is over 10000 nM at Adenosine A2 receptor and over 100000 nM on Adenosine receptor A1 [2].
Take `CCCn1c(=O)c2nc(/C=C/c3ccc(OC)c(OC)c3)[nH]c2n(CCC)c1=O`: the Ki on Adenosine receptor A1 [2] turned out to be 1700 nM.
With `CCCn1c(=O)c2c(nc(/C=C/c3ccccc3)n2C)n(CCC)c1=O`, the figures for the Ki at Adenosine receptor A1 [1], at Adenosine A2 receptor and on Adenosine receptor A1 [2] were 220 nM, 15 nM and 720 nM, respectively. Besides, the Ki ratio in the series filed under Cavia porcellus was 48.
On to `CCCn1c(=O)c2[nH]c(CCC3CCCC3)nc2n(CCC)c1=O`, for which the Ki on Adenosine receptor A1 [2] came to 320 nM.
On to `CCCn1c(=O)c2[nH]c(-c3ccc(S(=O)(=O)N(C)CCN(C)C)cc3)nc2n(CCC)c1=O`, for which the inhibition constant (Ki) at Adenosine receptor A1 [4] is 13.9 nM; on Adenosine receptor A1 [2], 140 nM.
With `CCCn1c(=O)c2c(nc(CCC3CCCC3)n2C)n(CCC)c1=O`, the Ki on Adenosine A2 receptor was over 10000 nM; at Adenosine receptor A1 [2], 1300 nM.
On to `CCCCn1c(=O)c2c(nc(/C=C/c3cc(OC)c(OC)c(OC)c3)n2C)n(CCCC)c1=O`, for which the Ki at Adenosine A2 receptor is 52 nM; on Adenosine receptor A1 [2], 2300 nM. Also, the Ki ratio in the series listed under Cavia porcellus was determined as 44.
Taken in the same sequence, the figures for `CCCn1c(=O)c2c(nc(C/C=C/c3ccccc3)n2C)n(CCC)c1=O` were 1800 nM, 3500 nM and 1.9.
As to `CCCn1c(=O)c2c(nc(/C=C/c3ccc(Cl)c(Cl)c3)n2C)n(CCC)c1=O`, the inhibition constant Ki was 7500 nM at Adenosine A2 receptor and over 100000 nM on Adenosine receptor A1 [2].
`C=CCn1c(=O)c2c(nc(/C=C/c3cc(OC)c(OC)c(OC)c3)n2C)n(CC=C)c1=O`: on Adenosine receptor A1 [2], the Ki is over 100000 nM.
For `CCCn1c(=O)c2c(nc(/C=C/c3ccc(OC)cc3)n2C)n(CCC)c1=O`, the Ki on Adenosine receptor A1 [1] worked out at 340 nM; on Adenosine A2 receptor, 18 nM; at Adenosine receptor A1 [2], 1400 nM. In the series listed under Cavia porcellus, the Ki ratio is 78.
Consider `CCCn1c(=O)c2nc(/C=C/c3ccc(Cl)cc3)[nH]c2n(CCC)c1=O`, for which the Ki on Adenosine A2 receptor and at Adenosine receptor A1 [2] was over 100000 nM throughout.
As to `CCCn1c(=O)c2nc(/C=C/c3ccccc3)[nH]c2n(CCC)c1=O`, the Ki at Adenosine A2 receptor was determined as 26 nM; at Adenosine receptor A1 [2], 1800 nM.
On to `COc1cc(/C=C/c2nc3c(=O)n(C)c(=O)n(C)c3[nH]2)cc(OC)c1OC`, for which, on Adenosine receptor A1 [2], the Ki was over 100000 nM.
As for `CCCn1c(=O)c2nc(-c3ccc(S(=O)(=O)N(C)CCN(C)C)cc3)[nH]c2n(CCC)c1=O`, the Ki ratio in the series filed under Cavia porcellus worked out at 5.4.
Consider `CCCCn1c(=O)c2nc(/C=C/c3cc(OC)c(OC)c(OC)c3)[nH]c2n(CCCC)c1=O`, for which the values for the Ki at Adenosine A2 receptor and on Adenosine receptor A1 [2] were 93 nM and 1400 nM, respectively. The Ki ratio in the series listed under Cavia porcellus was 15.
On the same counts, the results for `C=CCn1c(=O)c2nc(/C=C/c3cc(OC)c(OC)c(OC)c3)[nH]c2n(CC=C)c1=O` are 47 nM, over 100000 nM and over 2100.
On the same counts, the results for `CCCn1c(=O)[nH]c(=O)c2[nH]c(/C=C/c3cc(OC)c(OC)c(OC)c3)nc21` are 2200 nM, 820 nM and 0.37.
Take `CCCn1c(=O)c2nc(/C=C/c3ccc(OC)cc3)[nH]c2n(CCC)c1=O`: the Ki at Adenosine A2 receptor was 110 nM; at Adenosine receptor A1 [2], over 100000 nM.
On the same counts, the results for `CCCn1c(=O)c2c(nc(/C=C/c3ccc(Cl)cc3)n2C)n(CCC)c1=O` are 49 nM and over 10000 nM.
Regarding `CCCn1c(=O)c2nc(/C=C/c3ccc(Cl)c(Cl)c3)[nH]c2n(CCC)c1=O`, the inhibition constant Ki on Adenosine A2 receptor and at Adenosine receptor A1 [2] was over 100000 nM throughout.
For `CCCn1c(=O)c2c(nc(/C=C/c3ccc(OC)c(OC)c3)n2C)n(CCC)c1=O`, the Ki on Adenosine receptor A1 [1] was found to be 430 nM. In addition, the solubility in series [5] was under 10 µg/mL.
`CCCn1c(=O)c2c(nc(/C(C)=C/c3ccccc3)n2C)n(CCC)c1=O`: the Ki on Adenosine A2 receptor and at Adenosine receptor A1 [2] was over 10000 nM in each case.
Take `CCCn1c(=O)c2nc(CCc3ccccc3)[nH]c2n(CCC)c1=O`: the inhibition constant (Ki) at Adenosine A2 receptor worked out at 6200 nM; at Adenosine receptor A1 [2] it was 560 nM. In the series listed under Cavia porcellus, the Ki ratio came to 0.09.
On the same counts, the results for `CCCn1c(=O)c2nc(C/C=C/c3ccccc3)[nH]c2n(CCC)c1=O` are 1600 nM, 870 nM and 0.54.
For `CCCn1c(=O)c2nc(CCC3CCCC3)[nH]c2n(CCC)c1=O`, the Ki at Adenosine A2 receptor turned out to be 6000 nM. The Ki ratio in the series listed under Cavia porcellus turned out to be 0.053.
For `CCCn1c(=O)c2c(nc(CCc3ccccc3)n2C)n(CCC)c1=O`, the inhibition constant (Ki) on Adenosine A2 receptor amounted to 2200 nM; on Adenosine receptor A1 [2] it was 1300 nM. In the series listed under Cavia porcellus, the Ki ratio was determined as 0.59.

(Values after ChEMBL document CHEMBL1126087, “(E)-1,3-dialkyl-7-methyl-8-(3,4,5-trimethoxystyryl)xanthines: potent and selective adenosine A2 antagonists” (J Med Chem, 1992).)
